In ChEMBL document CHEMBL3885881, “DrugMatrix”:

Organism: Rattus norvegicus
Test: DrugMatrix - Regimen: Daily Repeat
Assay type: toxicity, organism-based, Sprague-Dawley
Design: regimen Daily Repeat, gender Male, age 6-8 weeks
Details: in vivo, po, route oral GAVAGE, vehicle 100 % WATER; for URIC ACID / ALANINE AMINOTRANSFERASE / ALBUMIN / ALKALINE PHOSPHATASE / ASPARTATE AMINOTRANSFERASE / BLOOD UREA NITROGEN / CARBON DIOXIDE / CHLORIDE / CHOLESTEROL / CREATINE PHOSPHOKINASE / CREATININE / GLUCOSE / LACTATE DEHYDROGENASE / LIPASE / PHOSPHORUS / POTASSIUM / SODIUM / TOTAL BILIRUBIN / TOTAL PROTEIN: tissue Plasma; for ABSOLUTE BASOPHIL / ABSOLUTE EOSINOPHIL / ABSOLUTE LYMPHOCYTE / ABSOLUTE MONOCYTE / ABSOLUTE SEGMENTED NEUTROPHIL / BASOPHIL / EOSINOPHIL / ERYTHROCYTE COUNT / HEMATOCRIT / HEMOGLOBIN / LEUKOCYTE COUNT / LYMPHOCYTE / MEAN CORPUSCULAR HEMOGLOBIN / MEAN CORPUSCULAR HEMOGLOBIN CONCENTRATION / MONOCYTE / NEUTROPHIL / NUCLEATED RED BLOOD CELLS / PLATELET COUNT: tissue Blood
[1] = 50 mg/kg, 120 h, dose level Low, time 5 day
[2] = 1750 mg/kg, 72 h, dose level High, time 3 day
[3] = 1750 mg/kg, 120 h, dose level High, time 5 day

## C[C@H](CS)C(=O)N1CCC[C@H]1C(=O)O [CAPTOPRIL]
50 mg/kg, 72 h, dose level Low, time 3 day
  URIC ACID: 1.37 mg/dL
[1]
  ABSOLUTE BASOPHIL: 0 CELLS/uL
  ABSOLUTE EOSINOPHIL: 130 CELLS/uL
  ABSOLUTE LYMPHOCYTE: 12459.67 CELLS/uL
  ABSOLUTE MONOCYTE: 96.33 CELLS/uL
  ABSOLUTE SEGMENTED NEUTROPHIL: 1180.67 CELLS/uL
  BASOPHIL: 0%
  EOSINOPHIL: 1%
  ERYTHROCYTE COUNT: 5.51 x10E6/uL
  HEMATOCRIT: 34.87%
  HEMOGLOBIN: 14.1 G/DL
  LEUKOCYTE COUNT: 13.87 x10E3/uL
  LYMPHOCYTE: 90%
  MEAN CORPUSCULAR HEMOGLOBIN: 25.63 pg
  MEAN CORPUSCULAR HEMOGLOBIN CONCENTRATION: 40.43 G/DL
  MONOCYTE: 0.67%
  NEUTROPHIL: 8.33%
  NUCLEATED RED BLOOD CELLS: 0.33 /100WBC
  PLATELET COUNT: 1341.67 x10E3/uL
  ALANINE AMINOTRANSFERASE: 46.33 u/L
  ALBUMIN: 4.37 G/DL
  ALKALINE PHOSPHATASE: 377.67 u/L
  ASPARTATE AMINOTRANSFERASE: 83.33 u/L
  BLOOD UREA NITROGEN: 16.67 mg/dL
  CARBON DIOXIDE: 30.67 mmol/L
  CHLORIDE: 100.33 MEQ/L
  CHOLESTEROL: 79.67 mg/dL
  CREATINE PHOSPHOKINASE: 326.33 u/L
  CREATININE: 0.2 mg/dL
  GLUCOSE: 140.67 mg/dL
  LACTATE DEHYDROGENASE: 506 u/L
  LIPASE: 12.67 u/L
  PHOSPHORUS: 10.43 mg/dL
  POTASSIUM: 6.71 MEQ/L
  SODIUM: 141.93 MEQ/L
  TOTAL BILIRUBIN: 0.2 mg/dL
  TOTAL PROTEIN: 6.37 G/DL
  URIC ACID: 1.4 mg/dL
[2]
  ABSOLUTE BASOPHIL: 0 CELLS/uL
  ABSOLUTE EOSINOPHIL: 0 CELLS/uL
  ABSOLUTE LYMPHOCYTE: 14323.33 CELLS/uL
  ABSOLUTE MONOCYTE: 220.67 CELLS/uL
  ABSOLUTE SEGMENTED NEUTROPHIL: 1556 CELLS/uL
  BASOPHIL: 0%
  EOSINOPHIL: 0%
  ERYTHROCYTE COUNT: 5.51 x10E6/uL
  HEMATOCRIT: 34.3%
  HEMOGLOBIN: 13.6 G/DL
  LEUKOCYTE COUNT: 16.1 x10E3/uL
  LYMPHOCYTE: 89%
  MEAN CORPUSCULAR HEMOGLOBIN: 24.73 pg
  MEAN CORPUSCULAR HEMOGLOBIN CONCENTRATION: 39.67 G/DL
  MONOCYTE: 1.33%
  NEUTROPHIL: 9.67%
  NUCLEATED RED BLOOD CELLS: 0.67 /100WBC
  PLATELET COUNT: 1393 x10E3/uL
  ALANINE AMINOTRANSFERASE: 54.67 u/L
  ALBUMIN: 4.07 G/DL
  ALKALINE PHOSPHATASE: 365.33 u/L
  ASPARTATE AMINOTRANSFERASE: 87 u/L
  BLOOD UREA NITROGEN: 25.67 mg/dL
  CARBON DIOXIDE: 24 mmol/L
  CHLORIDE: 100.67 MEQ/L
  CHOLESTEROL: 71.67 mg/dL
  CREATINE PHOSPHOKINASE: 349.33 u/L
  CREATININE: 0.16 mg/dL
  GLUCOSE: 152.33 mg/dL
  LACTATE DEHYDROGENASE: 356 u/L
  LIPASE: 10.33 u/L
  PHOSPHORUS: 11.53 mg/dL
  SODIUM: 139.9 MEQ/L
  TOTAL BILIRUBIN: 0.2 mg/dL
  TOTAL PROTEIN: 5.73 G/DL
  URIC ACID: 1.27 mg/dL
[3]
  ABSOLUTE BASOPHIL: 0 CELLS/uL
  ABSOLUTE EOSINOPHIL: 0 CELLS/uL
  ABSOLUTE LYMPHOCYTE: 12668 CELLS/uL
  ABSOLUTE MONOCYTE: 119.33 CELLS/uL
  ABSOLUTE SEGMENTED NEUTROPHIL: 946 CELLS/uL
  BASOPHIL: 0%
  EOSINOPHIL: 0%
  ERYTHROCYTE COUNT: 5.54 x10E6/uL
  HEMATOCRIT: 34.7%
  HEMOGLOBIN: 13.83 G/DL
  LEUKOCYTE COUNT: 13.73 x10E3/uL
  LYMPHOCYTE: 92.33%
  MEAN CORPUSCULAR HEMOGLOBIN: 25.03 pg
  MEAN CORPUSCULAR HEMOGLOBIN CONCENTRATION: 39.9 G/DL
  MONOCYTE: 1%
  NEUTROPHIL: 6.67%
  NUCLEATED RED BLOOD CELLS: 0 /100WBC
  PLATELET COUNT: 1353.67 x10E3/uL
  ALANINE AMINOTRANSFERASE: 53.67 u/L
  ALBUMIN: 4.13 G/DL
  ALKALINE PHOSPHATASE: 415 u/L
  ASPARTATE AMINOTRANSFERASE: 102 u/L
  BLOOD UREA NITROGEN: 39.33 mg/dL
  CARBON DIOXIDE: 24.33 mmol/L
  CHLORIDE: 102.33 MEQ/L
  CHOLESTEROL: 70.33 mg/dL
  CREATINE PHOSPHOKINASE: 594.67 u/L
  CREATININE: 0.33 mg/dL
  GLUCOSE: 145.33 mg/dL
  LACTATE DEHYDROGENASE: 1114.33 u/L
  LIPASE: 11 u/L
  PHOSPHORUS: 10.47 mg/dL
  POTASSIUM: 6.84 MEQ/L
  SODIUM: 141.27 MEQ/L
  TOTAL BILIRUBIN: 0.23 mg/dL
  TOTAL PROTEIN: 6.03 G/DL
  URIC ACID: 1.87 mg/dL
